A word on the IC50: it is the concentration at which inhibition is half-maximal. A low value points to greater potency in that assay.

T1 sequence (P16473 21-764): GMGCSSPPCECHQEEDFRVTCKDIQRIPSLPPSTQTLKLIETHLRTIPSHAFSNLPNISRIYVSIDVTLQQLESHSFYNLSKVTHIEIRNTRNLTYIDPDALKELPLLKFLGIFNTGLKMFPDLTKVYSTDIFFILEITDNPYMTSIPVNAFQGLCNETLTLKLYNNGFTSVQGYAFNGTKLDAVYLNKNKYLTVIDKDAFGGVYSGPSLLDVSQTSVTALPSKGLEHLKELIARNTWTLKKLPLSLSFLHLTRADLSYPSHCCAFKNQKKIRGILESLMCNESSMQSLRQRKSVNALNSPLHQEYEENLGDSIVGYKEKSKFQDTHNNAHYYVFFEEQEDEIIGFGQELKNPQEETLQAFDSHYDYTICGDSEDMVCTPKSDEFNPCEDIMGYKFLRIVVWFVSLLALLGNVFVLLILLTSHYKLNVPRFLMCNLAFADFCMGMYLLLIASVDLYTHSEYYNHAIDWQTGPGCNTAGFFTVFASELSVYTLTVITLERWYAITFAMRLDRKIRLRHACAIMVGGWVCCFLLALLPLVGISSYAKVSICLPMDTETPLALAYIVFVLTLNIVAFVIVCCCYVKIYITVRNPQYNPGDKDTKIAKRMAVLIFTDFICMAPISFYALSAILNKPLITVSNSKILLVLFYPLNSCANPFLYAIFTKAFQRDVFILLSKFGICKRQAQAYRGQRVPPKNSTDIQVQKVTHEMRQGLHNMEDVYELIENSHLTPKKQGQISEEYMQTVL

This experiment concerns the target T1, human TSHR (Homo sapiens, UniProt P16473).
T1 construct: expressed in transfected cells
Nature of the experiment: Antagonist activity using TSH-induced cAMP production in human TSHR-stably expressing CHO cells. In kind it is cell-based. As to conditions: human TSH final concentration of 50 ng/mL, cAMP production rate. The protocol: Measurement of antagonist activity using TSH-induced cAMP production in human TSHR-stably expressing CHO cells as an indicator
The gene sequence (reference number NM_000369.2) of human TSHR was inserted into the multiple cloning site of pcDNA3.1(+). The prepared plasmid vector was introduced into CHO cells using a lipofection method to establish human TSHR-stably expressing CHO cells. The obtained cells were seeded at 5 x 10^4 cells/well in a 96-well poly-D-lysine-coated plate, and cultured in an F12 culture medium containing 10% FBS, 400 µg/mL of G418, 50 U/mL of penicillin and 50 µg/mL of streptomycin under conditions of 37°C and 5% CO2 for 1 day. The culture medium was removed, and the cells were then washed twice with 100 µL of an assay buffer (Hanks' Balanced Salt Solution containing 20 mM HEPES and 1 mM IBMX) per well. 30 µL of an assay buffer containing a test compound was added to the well, and incubation was performed at room temperature for 15 minutes. Then, 30 µL of an assay buffer containing human TSH (a final concentration of 50 ng/mL, R&D Systems, Inc.) was added, and incubation was performed at 37°C for 1 hour. The supernatant was removed, a Lysis and Detection Buffer 2 (Cisbio) was added, and incubation was performed at room temperature for 1 hour to prepare a cell lysate. According to the instruction manual of a cAMP Gs HiRange kit (Cisbio), the cell lysate, d2-labeled cAMP and anti-cAMP Europium Cryptate labeled antibodies (Cisbio) were reacted in a 384-well white microplate. Then, a fluorescence intensity ratio (measurement wavelength 665 nm/620 nm) was measured using a multi-plate reader (PHERAstar FSX, BMG LABTECH Japan). The fluorescence intensity ratio of each sample was converted to a cAMP content using a standard curve. The cAMP content was converted as a percentage of the control value to calculate a cAMP production rate. The cAMP production rate was plotted against the test compound concentration using Prism (Graph Pad Software Inc.) to calculate the IC50 value. In the tables, IC50<3.0 µM was indicated as A, and 3.0 µM≤IC50<30 µM was indicated as B. If activity was observed but the IC50 value could not be calculated, it was indicated as C.
(Cyclic AMP is a second messenger, typically raised through Gs and lowered through Gi signalling.)
The compound `Cc1ccc2c(c1Oc1cc(F)ccc1Cl)N(C)C(=O)[C@H](NC(N)=O)[C@H]2O` (relative stereo) [Example 21, 1-((3R^*,4S^*)-8-(2-chloro-5-fluorophenoxy)-4-hydroxy-1,7-dimethyl-2-oxo-1,2,3,4-tetrahydroquinoline-3-yl)urea] gave an IC50 of less than 3 µM.
The compound `CN1C(=O)C(C(N)=O)Cc2cc(NC(=O)OC3CCCC3)cc(Oc3ccccc3)c21` (stereo not shown) [Example 1, cyclopentyl (3-carbamoyl-1-methyl-2-oxo-8-phenoxy-1,2,3,4-tetrahydroquinoline-6-yl)carbamate] came in with a half-maximal inhibitory concentration (IC50) of 3 to 30 µM.
For `CN1C(=O)C(CC(N)=O)Cc2cc(NC(=O)OC3CCCC3)cc(Oc3ccccc3)c21` (stereo not shown) [Example 2, cyclopentyl (3-(2-amino-2-oxoethyl)-1-methyl-2-oxo-8-phenoxy-1,2,3,4-tetrahydroquinoline-6-yl)carbam ate], the IC50 was less than 3 µM.
With `CN1C(=O)C(CC(N)=O)Cc2cc(NC(=O)OC3CCCC3)cc(Oc3ccccc3C#N)c21` (stereo not shown) [Example 3, cyclopentyl (3-(2-amino-2-oxoethyl)-8-(2-cyanophenoxy)-1-methyl-2-oxo-1,2,3,4-tetrahydroquinoline-6-yl)carbamate], the IC50 is less than 3 µM.
To `CN1C(=O)C(NC(N)=O)Cc2cc(NC(=O)OC3CCCC3)cc(Oc3ccccc3C#N)c21` (stereo not shown) [Example 4, cyclopentyl (8-(2-cyanophenoxy)-1-methyl-2-oxo-3-ureido-1,2,3,4-tetrahydroquinoline-6-yl)carbamate] belongs less than 3 µM; to `CN1C(=O)C(NC(N)=O)Cc2cc(NC(=O)OC3CCCC3)cc(Oc3cccc(C(F)(F)F)n3)c21` (stereo not shown) [Example 5, cyclopentyl (1-methyl-2-oxo-8-((6-trifluoromethylpyridin-2-yl)oxy)-3-ureido-1,2,3,4-tetrahydroquinoline-6-yl)carbamate], less than 3 µM; to `C[C@H](OC(=O)Nc1cc2c(c(Oc3cccc(C(F)(F)F)n3)c1)N(C)C(=O)C(NC(N)=O)C2)C(F)(F)F` (stereo partly drawn) [Example 6, (S)-1,1,1-trifluoropropan-2-yl (1-methyl-2-oxo-8-((6-trifluoromethylpyridin-2-yl)oxy)-3-ureido-1,2,3,4-tetrahydroquinoline-6-yl)carbamate], less than 3 µM.
The compound `CN1C(=O)C(NC(N)=O)Cc2cc(NC(=O)OCC3CC3)cc(Oc3cccc(C(F)(F)F)n3)c21` (stereo not shown) [Example 7, cyclopropylmethyl (1-methyl-2-oxo-8-((6-(trifluoromethyl)pyridin-2-yl)oxy)-3-ureido-1,2,3,4-tetrahydroquinoline-6-yl)carbamate] registered an IC50 of less than 3 µM.
The compound `CN1C(=O)C(NC(N)=O)Cc2cc(NC(=O)OC3(C)CC3)cc(Oc3cccc(C(F)(F)F)n3)c21` (stereo not shown) [Example 8, 1-methylcyclopropyl (1-methyl-2-oxo-8-((6-(trifluoromethyl)pyridin-2-yl)oxy)-3-ureido-1,2,3,4-tetrahydroquinoline-6-yl)carbamate] yielded an IC50 of less than 3 µM.
Consider `CC(C)OC(=O)Nc1cc2c(c(Oc3cccc(C(F)(F)F)n3)c1)N(C)C(=O)C(NC(N)=O)C2` (stereo not shown) [Example 9, isopropyl (1-methyl-2-oxo-8-((6-trifluoromethylpyridin-2-yl)oxy)-3-ureido-1,2,3,4-tetrahydroquinoline-6-yl)carbamate], for which the half-inhibitory concentration (IC50) was less than 3 µM.
As for `CN1C(=O)C(CNC(N)=O)Cc2cccc(Oc3ccccc3)c21` (stereo not shown) [Example 10, 1-((1-methyl-2-oxo-8-phenoxy-1,2,3,4-tetrahydroquinoline-3-yl)methyl)urea], the IC50 lay within 3 to 30 µM.
With `CN1C(=O)[C@H](NC(N)=O)Cc2cccc(C(=O)c3ccccc3Cl)c21` [Example 11, (R)-1-(8-(2-chlorobenzoyl)-1-methyl-2-oxo-1,2,3,4-tetrahydroquinoline-3-yl)urea], the IC50 is less than 3 µM.
As to `CN1C(=O)[C@H](NC(N)=O)Cc2cccc(C(O)c3ccccc3Cl)c21` (stereo partly drawn) [Example 12, 1-((3R)-8-((2-chlorophenyl)(hydroxy)methyl)-1-methyl-2-oxo-1,2,3,4-tetrahydroquinoline-3-yl)urea], the IC50 was greater than 30 µM.
With `C=C(c1ccccc1Cl)c1cccc2c1N(C)C(=O)[C@H](NC(N)=O)C2` [Example 13, (R)-1-(8-(1-(2-chlorophenyl)vinyl)-1-methyl-2-oxo-1,2,3,4-tetrahydroquinoline-3-yl)urea] the figure was less than 3 µM; with `CN1C(=O)C(NC(N)=O)Cc2cccc(C(C)(C)c3ccccc3)c21` (stereo not shown) [Example 14, 1-(1-methyl-2-oxo-8-(2-phenylpropan-2-yl)-1,2,3,4-tetrahydroquinoline-3-yl)urea], 3 to 30 µM; with `CC1(c2ccccc2)CC(C)(C)N2C(=O)[C@H](NC(N)=O)Cc3cccc1c32` (stereo partly drawn) [Example 15, 1-((2R)-5,5,7-trimethyl-3-oxo-7-phenyl-2,3,6,7-tetrahydro-1H,5H-pyrido[3,2,1-ij]quinolin-2-yl)urea], less than 3 µM.
Turning to `CC1(c2ccccc2)CCN2C(=O)[C@H](NC(N)=O)Cc3cccc1c32` (stereo partly drawn) [Example 16, 1-((2R)-7-methyl-3-oxo-7-phenyl-2,3,6,7-tetrahydro-1H,5H-pyrido[3,2,1-ij]quinoline-2-yl)ur ea], the IC50 lay within 3 to 30 µM.
Take `CC1(c2ccccc2)C(=O)C(C)(C)N2C(=O)[C@H](NC(N)=O)Cc3cccc1c32` (stereo partly drawn) [Example 17, 1-((2R)-5,5,7-trimethyl-3,6-dioxo-7-phenyl-2,3,6,7-tetrahydro-1H,5H-pyrido[3,2,1-ij]quinoline-2-yl)urea]: the IC50 is less than 3 µM.
In turn, `CN1C(=O)[C@H](NC(N)=O)Cc2cccc(OCc3ccccc3)c21` [Example 18, (R)-1-(8-(benzyloxy)-1-methyl-2-oxo-1,2,3,4-tetrahydroquinoline-3-yl)urea] yielded an IC50 greater than 30 µM.
`Cc1ccc2c(c1Oc1cc(F)ccc1Cl)N(C)C(=O)[C@H](NC(=O)N1CCOCC1)C2` [Example 19, (R)-N-(8-(2-chloro-5-fluorophenoxy)-1,7-dimethyl-2-oxo-1,2,3,4-tetrahydroquinoline-3-yl)m orpholine-4-carboxamide]: the IC50 was less than 3 µM.
Regarding `Cc1ccc2c(c1Oc1cc(F)ccc1Cl)N(C)C(=O)[C@H](NC(=O)c1ccccc1)C2` [Example 20, (R)-N-(8-(2-chloro-5-fluorophenoxy)-1,7-dimethyl-2-oxo-1,2,3,4-tetrahydroquinoline-3-yl)b enzamide], the IC50 was less than 3 µM.
The compound `COC(=O)N[C@@H]1Cc2cccc(Oc3cc(F)ccc3Cl)c2N(C)C1=O` [Example 22, methyl (R)-(8-(2-chloro-5-fluorophenoxy)-1-methyl-2-oxo-1,2,3,4-tetrahydroquinoline-3-yl)carbamate] returned an IC50 of less than 3 µM.
To `CN1C(=O)[C@H](NS(N)(=O)=O)Cc2cccc(Oc3cc(F)ccc3Cl)c21` [Example 23] belongs less than 3 µM.
Regarding `CN1C(=O)[C@H](N2CCNC2=O)Cc2cccc(Oc3cc(F)ccc3Cl)c21` [Example 24, (R)-8-(2-chloro-5-fluorophenoxy)-1-methyl-3-(2-oxoimidazolidine-1-yl)-3,4-dihydroquinoline-2(1H)-one], the IC50 fell in the range of 3 to 30 µM.
`CN1C(=O)[C@H](N2CCOC2=O)Cc2cccc(Oc3cc(F)ccc3Cl)c21` [Example 25, (R)-3-(8-(2-chloro-5-fluorophenoxy)-1-methyl-2-oxo-1,2,3,4-tetrahydroquinoline-3-yl)oxazo lidine-2-one] had an IC50 greater than 30 µM.
For the compound `CN1C(=O)C(OC(N)=O)Cc2cccc(Oc3cc(F)ccc3Cl)c21` (stereo not shown) [Example 26, 8-(2-chloro-5-fluorophenoxy)-1-methyl-2-oxo-1,2,3,4-tetrahydroquinoline-3-yl carbamate], the IC50 was less than 3 µM.
On to `CN1C(=S)C(NC(N)=O)Cc2cccc(Oc3cc(F)ccc3Cl)c21` (stereo not shown) [Example 27, 1-(8-(2-chloro-5-fluorophenoxy)-1-methyl-2-thioxo-1,2,3,4-tetrahydroquinoline-3-yl)urea], for which the IC50 is less than 3 µM.
Regarding `NC(=O)NC1Cc2cccc(Oc3cc(F)ccc3Cl)c2-n2ccnc21` (stereo not shown) [Example 28, 1-(9-(2-chloro-5-fluorophenoxy)-4,5-dihydroimidazo[1,2-a]quinoline-4-yl)urea], the IC50 is 3 to 30 µM.
`Cc1cnc2n1-c1c(cccc1Oc1cc(F)ccc1Cl)CC2NC(N)=O` (stereo not shown) [Example 29, 1-(9-(2-chloro-5-fluorophenoxy)-1-methyl-4,5-dihydroimidazo[1,2-a]quinolin-4-yl)urea]: the IC50 is 3 to 30 µM.
`CC(c1ccccc1)c1cccc2c1N(C)C(=O)N(CC(N)=O)C2` (stereo not shown) [Example 30, 2-(1-methyl-2-oxo-8-(1-phenylethyl)-1,4-dihydroquinazoline-3(2H)-yl)acetamide] yielded a half-inhibitory concentration (IC50) greater than 30 µM.
Compound `Cc1ccc2cc(NC(N)=O)c(=O)n(C)c2c1Oc1cc(F)ccc1Cl` [Example 31, 1-(8-(2-chloro-5-fluorophenoxy)-1,7-dimethyl-2-oxo-1,2-dihydroquinoline-3-yl)urea] displayed a concentration for half-maximal inhibition (IC50) greater than 30 µM.

The values are drawn from EP4818159A1 (Kissei Pharmaceutical Co., Ltd., priority 2023, dated 2025).
